Measured values taken from ChEMBL document CHEMBL1201862, “PubChem BioAssay data set” (2004).
Active and inactive are the calls of the source.

Columns and labels:
[1] = molecular target: T1, Corticotropin-releasing factor receptor 2/Corticotropin-releasing factor-binding protein (Homo sapiens, UniProt P24387+Q13324); test: activators of CRF receptor 2 with binding protein – uHTS hits, confirmation (AID 602473); type: functional; details: read-out: EC50_Mean
T1 sequence (Q13324 whole entry): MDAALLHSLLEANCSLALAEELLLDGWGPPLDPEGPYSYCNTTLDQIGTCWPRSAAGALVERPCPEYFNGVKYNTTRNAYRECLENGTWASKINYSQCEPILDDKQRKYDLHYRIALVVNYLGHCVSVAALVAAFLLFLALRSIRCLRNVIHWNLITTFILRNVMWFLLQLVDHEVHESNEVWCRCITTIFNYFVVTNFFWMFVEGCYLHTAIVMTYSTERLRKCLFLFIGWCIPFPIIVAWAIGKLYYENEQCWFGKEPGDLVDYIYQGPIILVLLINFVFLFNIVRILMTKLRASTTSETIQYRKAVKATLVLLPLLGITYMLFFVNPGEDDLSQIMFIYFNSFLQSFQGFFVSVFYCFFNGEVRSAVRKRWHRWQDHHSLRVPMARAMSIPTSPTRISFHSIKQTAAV
T1 sequence (P24387 whole entry): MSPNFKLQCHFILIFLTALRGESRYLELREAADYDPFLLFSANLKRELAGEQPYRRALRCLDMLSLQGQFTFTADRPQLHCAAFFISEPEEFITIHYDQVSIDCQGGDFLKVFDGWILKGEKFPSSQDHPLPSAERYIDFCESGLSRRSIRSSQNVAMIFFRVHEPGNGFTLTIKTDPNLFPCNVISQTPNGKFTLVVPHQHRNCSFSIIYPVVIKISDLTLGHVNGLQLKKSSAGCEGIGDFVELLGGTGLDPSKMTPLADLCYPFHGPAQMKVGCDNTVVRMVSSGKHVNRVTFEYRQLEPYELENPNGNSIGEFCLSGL

Troponin, cardiac muscle = Troponin, cardiac muscle (Homo sapiens, UniProt P19429+P45379+P63316); test: Fluorescence-based biochemical high throughput dose response assay for activators of the calcium sensitivity of cardiac Regulated Thin Filaments (RTF). [Related pubchem assays (depositor defined):AID493008, AID493018, AID504382, AID504383]; type: protein-complex assay
[2] = molecular target: T2, Type-1 angiotensin II receptor (Homo sapiens, UniProt P30556); test: AT1 receptor agonists, dose response, selectivity assay for APJ receptor agonist project, cell-based, uHTS hits (AID 488865); type: functional;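 note: beta-arrestin recruitment to AT1 measured by enzyme fragment complementation luminescence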
T2 sequence (P30556 whole entry): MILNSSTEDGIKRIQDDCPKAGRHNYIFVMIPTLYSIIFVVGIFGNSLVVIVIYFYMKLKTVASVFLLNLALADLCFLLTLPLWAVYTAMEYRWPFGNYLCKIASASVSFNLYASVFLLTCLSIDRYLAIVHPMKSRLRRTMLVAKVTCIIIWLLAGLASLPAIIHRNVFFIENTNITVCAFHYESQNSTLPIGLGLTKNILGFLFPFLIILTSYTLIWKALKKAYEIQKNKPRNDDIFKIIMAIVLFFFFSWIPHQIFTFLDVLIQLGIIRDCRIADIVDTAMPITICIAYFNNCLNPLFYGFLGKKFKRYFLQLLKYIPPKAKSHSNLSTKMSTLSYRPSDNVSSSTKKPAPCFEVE

[3] = molecular target: Sphingosine 1-phosphate receptor 2 (Homo sapiens, UniProt O95136); test: Dose Response Cell Based Assay for Agonists of the S1P2 Receptor. [Related pubchem assays: 729, 736, 843 ]; type: functional
Sphingosine 1-phosphate receptor 2, sequence (O95136 whole entry): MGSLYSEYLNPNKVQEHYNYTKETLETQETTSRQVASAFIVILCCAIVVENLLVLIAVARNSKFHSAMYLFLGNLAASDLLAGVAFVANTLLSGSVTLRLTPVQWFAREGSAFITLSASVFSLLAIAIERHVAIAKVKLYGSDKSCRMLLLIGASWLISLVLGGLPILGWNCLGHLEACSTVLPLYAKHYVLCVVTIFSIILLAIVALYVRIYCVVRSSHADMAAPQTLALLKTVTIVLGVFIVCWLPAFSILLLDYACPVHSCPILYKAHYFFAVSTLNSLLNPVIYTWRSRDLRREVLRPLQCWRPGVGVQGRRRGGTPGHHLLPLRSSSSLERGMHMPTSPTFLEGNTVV

[4] = molecular target: Sphingosine 1-phosphate receptor 4 (Homo sapiens, UniProt O95977); test: Fluorescence dose response cell-based high throughput screening assay for agonists of the Sphingosine 1-Phosphate Receptor 4 (S1P4). [Related pubchem assays: 1509 (Primary screen.), 1523 (Confirmation screen in triplicates.)]; type: functional
Sphingosine 1-phosphate receptor 4, sequence (O95977 whole entry): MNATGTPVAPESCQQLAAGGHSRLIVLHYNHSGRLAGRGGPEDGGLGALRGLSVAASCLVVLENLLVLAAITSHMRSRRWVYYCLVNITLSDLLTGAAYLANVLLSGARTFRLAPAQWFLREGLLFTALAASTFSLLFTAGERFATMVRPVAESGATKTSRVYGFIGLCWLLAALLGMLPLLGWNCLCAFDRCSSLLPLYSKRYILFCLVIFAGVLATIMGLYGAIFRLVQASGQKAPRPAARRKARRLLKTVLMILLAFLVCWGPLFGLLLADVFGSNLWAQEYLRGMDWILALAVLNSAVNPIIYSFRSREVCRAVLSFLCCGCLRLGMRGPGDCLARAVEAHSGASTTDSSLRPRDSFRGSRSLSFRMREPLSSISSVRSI

[5] = molecular target: Sphingosine 1-phosphate receptor 1 (Homo sapiens, UniProt P21453); test: Fluorescence-based counterscreen assay for S1P4 agonists: Cell-based dose response high throughput screening assay to identify agonists of the Sphingosine 1-Phosphate Receptor 1 (S1P1). [Related pubchem assays (depositor defined):AID1509, AID1523, AID1801, AID463107, AID463118, AID463119, AID463122, AID463123, AID463129, AID463225, AID504400, AID504460]; type: functional
Sphingosine 1-phosphate receptor 1, sequence (P21453 whole entry): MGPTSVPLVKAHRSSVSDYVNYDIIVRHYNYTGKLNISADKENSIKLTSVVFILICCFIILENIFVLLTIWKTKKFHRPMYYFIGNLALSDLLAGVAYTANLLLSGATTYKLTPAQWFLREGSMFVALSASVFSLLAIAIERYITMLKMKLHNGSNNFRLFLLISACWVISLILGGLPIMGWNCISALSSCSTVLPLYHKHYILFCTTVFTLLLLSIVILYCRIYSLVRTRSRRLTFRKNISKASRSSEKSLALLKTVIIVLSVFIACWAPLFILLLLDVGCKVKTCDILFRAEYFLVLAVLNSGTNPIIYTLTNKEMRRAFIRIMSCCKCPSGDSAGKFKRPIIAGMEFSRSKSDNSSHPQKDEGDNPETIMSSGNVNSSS

[6] = growth suppression of beta-catenin-knockout colon cells, dose response, cell-based, HCT116, human colon tumor (AID 1045); type: functional;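 note: HCT116 colon tumor cells with beta catenin knocked out; cells exposed to compound for 60 hours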
[7] = molecular target: Luciferin 4-monooxygenase (Photinus pyralis, UniProt P08659); test: Counter Screen for Luciferase-based Assay Positives. [Related pubchem assays: 620, 618, 411 ]
Luciferin 4-monooxygenase, sequence (P08659 whole entry): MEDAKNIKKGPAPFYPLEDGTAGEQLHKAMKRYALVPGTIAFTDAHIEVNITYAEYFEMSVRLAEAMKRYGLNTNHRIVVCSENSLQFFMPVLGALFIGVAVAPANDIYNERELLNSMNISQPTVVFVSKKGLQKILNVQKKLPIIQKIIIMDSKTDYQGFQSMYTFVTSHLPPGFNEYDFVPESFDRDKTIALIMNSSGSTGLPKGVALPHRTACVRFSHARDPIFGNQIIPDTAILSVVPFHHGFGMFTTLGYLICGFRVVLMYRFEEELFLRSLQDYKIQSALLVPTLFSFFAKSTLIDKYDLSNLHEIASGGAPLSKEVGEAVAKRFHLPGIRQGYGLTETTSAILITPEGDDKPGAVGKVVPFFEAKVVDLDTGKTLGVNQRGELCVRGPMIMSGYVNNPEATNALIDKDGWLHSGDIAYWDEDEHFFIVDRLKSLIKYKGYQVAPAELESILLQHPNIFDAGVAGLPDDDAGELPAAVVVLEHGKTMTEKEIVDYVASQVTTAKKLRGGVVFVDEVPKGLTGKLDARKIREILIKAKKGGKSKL

[8] = growth suppression of PTEN-null colon cells, dose response, cell-based, HCT116 PTEN knockout (AID 1047); type: functional;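 note: HCT116 colon tumor cells with PTEN knocked out; cells exposed to compound for 60 hours before readout; potency for loss of cell viability measured by luminescence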
HT-1080 = test: cytotoxicity in HT1080 fibrosarcoma cells, cell-based, fluorescence readout (AID 620); type: functional; details: Homo sapiens
[9] = molecular target: Intestinal-type alkaline phosphatase (Homo sapiens, UniProt P09923); test: human intestinal alkaline phosphatase activators, dose response, biochemical, luminescence, uHTS hits (AID 463120); type: functional
Intestinal-type alkaline phosphatase, sequence (P09923 whole entry): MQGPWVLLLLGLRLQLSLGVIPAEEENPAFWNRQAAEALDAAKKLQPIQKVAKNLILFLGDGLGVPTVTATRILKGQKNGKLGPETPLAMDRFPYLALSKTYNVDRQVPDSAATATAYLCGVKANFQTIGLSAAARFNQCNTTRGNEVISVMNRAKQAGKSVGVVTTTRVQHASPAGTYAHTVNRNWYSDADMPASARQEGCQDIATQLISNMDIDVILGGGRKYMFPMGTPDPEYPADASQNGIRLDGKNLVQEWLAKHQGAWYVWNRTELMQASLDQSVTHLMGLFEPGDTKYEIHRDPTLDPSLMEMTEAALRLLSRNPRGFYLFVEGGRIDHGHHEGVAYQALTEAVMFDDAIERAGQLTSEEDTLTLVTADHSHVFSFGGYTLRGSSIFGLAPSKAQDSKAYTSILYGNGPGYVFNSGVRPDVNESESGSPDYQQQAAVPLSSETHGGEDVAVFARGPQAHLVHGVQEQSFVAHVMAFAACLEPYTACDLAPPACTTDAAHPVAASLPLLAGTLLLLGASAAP

Large T antigen = Large T antigen (Simian virus 40, UniProt P03070); test: A confirmatory biochemical assay using the ADP-Hunter methodology, purified TAg, and ATP to quantify activity of synthesized compounds that inhibit the ATPase activity of Tag (3). [Related pubchem assays (depositor defined):AID1903, AID1909, AID2102, AID2501, AID2615, AID2775, AID435001, AID449729]; design: species or system Betapolyomavirus macacae
Large T antigen, sequence (P03070 whole entry): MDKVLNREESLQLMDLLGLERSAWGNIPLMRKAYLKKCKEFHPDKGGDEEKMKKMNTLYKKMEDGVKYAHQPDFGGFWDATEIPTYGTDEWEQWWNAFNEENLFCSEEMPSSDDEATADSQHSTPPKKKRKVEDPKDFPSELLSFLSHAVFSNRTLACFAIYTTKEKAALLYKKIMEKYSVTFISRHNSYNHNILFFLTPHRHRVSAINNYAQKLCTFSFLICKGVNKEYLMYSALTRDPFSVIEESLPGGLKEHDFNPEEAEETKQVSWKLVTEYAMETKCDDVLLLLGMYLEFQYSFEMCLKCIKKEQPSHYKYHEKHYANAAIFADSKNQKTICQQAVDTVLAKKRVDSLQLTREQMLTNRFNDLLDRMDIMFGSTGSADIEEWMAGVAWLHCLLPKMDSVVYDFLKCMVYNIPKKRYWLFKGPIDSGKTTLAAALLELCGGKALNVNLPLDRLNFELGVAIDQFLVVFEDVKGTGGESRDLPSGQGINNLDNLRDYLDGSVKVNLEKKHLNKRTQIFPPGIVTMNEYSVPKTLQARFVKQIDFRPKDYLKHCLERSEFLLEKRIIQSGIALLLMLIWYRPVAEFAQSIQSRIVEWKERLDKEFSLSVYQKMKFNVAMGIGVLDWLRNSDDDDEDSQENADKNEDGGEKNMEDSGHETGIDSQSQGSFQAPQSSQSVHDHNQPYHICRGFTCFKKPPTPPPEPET

[10] = SV40 cytopathic effect inhibition and cytotoxicity, confirmation, BSC cells, set 3 (AID 485276); type: functional, cell-based
HEK293 = test: inhibitors of LMP1-driven NF-kB reporter, dose response, cell-based, HEK293, luciferase, cherry-pick (AID 588343); type: functional; details: Homo sapiens
[11] = molecular target: T3, Apoptotic protease-activating factor 1 (Homo sapiens, UniProt O14727); type: functional
T3 sequence (O14727 whole entry): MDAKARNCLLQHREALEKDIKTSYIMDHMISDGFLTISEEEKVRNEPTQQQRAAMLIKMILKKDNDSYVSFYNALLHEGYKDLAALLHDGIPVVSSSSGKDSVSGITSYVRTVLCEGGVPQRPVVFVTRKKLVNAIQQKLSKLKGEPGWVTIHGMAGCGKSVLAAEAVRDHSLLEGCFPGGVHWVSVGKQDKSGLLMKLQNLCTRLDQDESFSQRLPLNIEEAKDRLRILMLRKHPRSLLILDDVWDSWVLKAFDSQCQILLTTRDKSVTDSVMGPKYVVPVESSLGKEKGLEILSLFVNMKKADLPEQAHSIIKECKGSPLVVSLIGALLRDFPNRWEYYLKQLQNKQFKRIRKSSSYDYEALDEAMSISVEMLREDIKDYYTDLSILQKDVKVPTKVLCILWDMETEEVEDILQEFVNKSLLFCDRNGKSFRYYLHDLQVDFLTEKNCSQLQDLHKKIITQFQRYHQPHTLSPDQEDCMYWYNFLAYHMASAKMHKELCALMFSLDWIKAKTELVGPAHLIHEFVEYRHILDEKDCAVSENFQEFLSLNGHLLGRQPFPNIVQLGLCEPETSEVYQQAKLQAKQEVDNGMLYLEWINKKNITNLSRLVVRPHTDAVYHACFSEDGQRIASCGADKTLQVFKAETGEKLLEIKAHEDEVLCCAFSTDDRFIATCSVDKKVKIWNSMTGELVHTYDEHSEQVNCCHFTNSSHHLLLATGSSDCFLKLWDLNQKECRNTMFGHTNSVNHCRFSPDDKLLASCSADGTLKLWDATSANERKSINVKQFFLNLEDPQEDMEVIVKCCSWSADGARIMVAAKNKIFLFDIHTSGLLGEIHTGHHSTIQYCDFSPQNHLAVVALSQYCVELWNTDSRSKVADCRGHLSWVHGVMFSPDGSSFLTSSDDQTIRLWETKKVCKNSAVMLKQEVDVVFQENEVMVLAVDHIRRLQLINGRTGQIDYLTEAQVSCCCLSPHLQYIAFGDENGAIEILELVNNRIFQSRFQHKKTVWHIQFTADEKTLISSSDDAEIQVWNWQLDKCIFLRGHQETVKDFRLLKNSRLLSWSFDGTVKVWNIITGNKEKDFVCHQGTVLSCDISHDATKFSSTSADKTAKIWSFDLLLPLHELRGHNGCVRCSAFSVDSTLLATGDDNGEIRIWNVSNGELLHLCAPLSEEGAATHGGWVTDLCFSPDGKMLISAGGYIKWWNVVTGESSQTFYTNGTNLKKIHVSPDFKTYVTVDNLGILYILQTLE

[12] = NIH-3T3 fibroblast cytotoxicity, dose response, cytotoxicity control, cell-based, fluorescence, Alamar Blue, secondary assay (AID 2327); type: functional;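 note: NIH-3T3 mouse fibroblasts cultured with fluconazole at 8 µg/mL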
BJ [13] = test: cells; type: functional, cell-based; details: Homo sapiens
BJ [14] = test: cytotoxicity toward Ras-transformed BJeLR fibroblasts, dose response, cell-based, alamar blue fluorescence, cherrypicked samples (AID 2631); type: functional; details: Homo sapiens;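 note: confirmatory dose-response assay in RAS-dependent BJ fibroblasts engineered with TERT, LT and ST, with cytotoxicity read by fluorescence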
BJ [15] = test: cytotoxicity toward BJ-TERT fibroblasts, dose response, cell-based, RAS-independent, luminescence (AID 1933); type: functional; details: Homo sapiens
[16] = inhibitors of SNCA 5'UTR-driven reporter translation, confirmation, H4 neuroglioma cells, luminescence (AID 1988); type: functional, cell-based
Hexokinase HKDC1 = molecular target: T4, Hexokinase HKDC1 (Homo sapiens, UniProt Q2TB90); test: HKDC1 hexokinase activators, dose response, biochemical, W721R variant (AID 504730); type: functional
T4 sequence (Q2TB90 whole entry): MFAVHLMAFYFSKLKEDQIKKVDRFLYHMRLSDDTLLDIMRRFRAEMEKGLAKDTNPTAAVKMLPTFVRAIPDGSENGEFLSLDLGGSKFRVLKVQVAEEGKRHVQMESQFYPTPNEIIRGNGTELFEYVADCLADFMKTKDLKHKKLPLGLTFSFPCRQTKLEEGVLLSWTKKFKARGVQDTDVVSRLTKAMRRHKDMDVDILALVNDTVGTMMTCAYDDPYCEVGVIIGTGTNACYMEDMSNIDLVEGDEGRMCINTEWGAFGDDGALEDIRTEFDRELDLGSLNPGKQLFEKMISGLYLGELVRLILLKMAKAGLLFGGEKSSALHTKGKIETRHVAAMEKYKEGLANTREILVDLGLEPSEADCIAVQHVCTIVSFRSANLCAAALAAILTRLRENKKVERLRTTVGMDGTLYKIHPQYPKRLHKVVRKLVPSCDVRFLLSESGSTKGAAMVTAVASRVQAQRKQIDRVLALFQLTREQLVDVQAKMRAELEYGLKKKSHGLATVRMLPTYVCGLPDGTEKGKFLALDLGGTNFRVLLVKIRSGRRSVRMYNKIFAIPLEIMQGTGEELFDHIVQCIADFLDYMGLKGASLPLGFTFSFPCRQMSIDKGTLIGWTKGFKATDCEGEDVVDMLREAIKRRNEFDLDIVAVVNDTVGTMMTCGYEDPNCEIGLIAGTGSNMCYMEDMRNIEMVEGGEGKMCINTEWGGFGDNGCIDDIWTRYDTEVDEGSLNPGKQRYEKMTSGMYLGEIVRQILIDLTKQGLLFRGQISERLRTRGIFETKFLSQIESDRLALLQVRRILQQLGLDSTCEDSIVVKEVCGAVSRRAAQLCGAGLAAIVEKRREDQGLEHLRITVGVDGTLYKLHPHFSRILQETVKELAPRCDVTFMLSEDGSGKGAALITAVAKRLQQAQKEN

Hexokinase-1 = Hexokinase-1 (Homo sapiens, UniProt P19367); test: hexokinase 1 activators, dose response, selectivity assay for HKDC1 activator project, biochemical (AID 504762); type: functional
Hexokinase-1, sequence (P19367 whole entry): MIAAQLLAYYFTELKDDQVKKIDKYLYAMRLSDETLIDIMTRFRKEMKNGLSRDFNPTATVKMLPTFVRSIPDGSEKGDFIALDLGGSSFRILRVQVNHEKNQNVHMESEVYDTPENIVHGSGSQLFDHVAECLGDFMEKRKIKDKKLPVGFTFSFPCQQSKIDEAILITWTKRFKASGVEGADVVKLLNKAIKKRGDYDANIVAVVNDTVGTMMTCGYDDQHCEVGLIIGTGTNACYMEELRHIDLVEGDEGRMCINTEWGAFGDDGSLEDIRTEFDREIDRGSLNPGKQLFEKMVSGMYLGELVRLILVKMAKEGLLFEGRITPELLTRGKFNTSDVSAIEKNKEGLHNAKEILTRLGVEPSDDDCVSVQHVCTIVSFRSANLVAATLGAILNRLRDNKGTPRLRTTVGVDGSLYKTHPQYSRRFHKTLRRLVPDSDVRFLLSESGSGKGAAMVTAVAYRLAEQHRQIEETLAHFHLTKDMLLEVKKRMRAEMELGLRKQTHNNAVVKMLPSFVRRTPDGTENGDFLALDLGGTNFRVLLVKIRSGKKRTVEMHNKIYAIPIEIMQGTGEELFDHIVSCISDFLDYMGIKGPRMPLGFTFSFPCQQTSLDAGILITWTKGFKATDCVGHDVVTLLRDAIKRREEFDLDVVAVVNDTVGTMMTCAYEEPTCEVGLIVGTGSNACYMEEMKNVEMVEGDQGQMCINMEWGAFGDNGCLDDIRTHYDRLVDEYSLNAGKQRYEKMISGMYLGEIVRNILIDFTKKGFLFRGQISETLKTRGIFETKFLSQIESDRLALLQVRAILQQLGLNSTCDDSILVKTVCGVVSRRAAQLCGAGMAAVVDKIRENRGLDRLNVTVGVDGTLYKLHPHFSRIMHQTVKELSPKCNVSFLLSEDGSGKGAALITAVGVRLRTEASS

INS1 = test: beta cell apoptosis inhibitors, cytokine rescue, dose response, luminescence, retest (AID 449756); type: functional, cell-based; details: Rattus norvegicus;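 note: cell death triggered by IL-1 beta plus TNF-alpha plus IFN-gamma mixture; protective hits raise ATP signal compared with cytokine alone wells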
[17] = C. albicans growth with fluconazole, confirmation, fluorescence, retest (AID 2467); type: functional, cell-based
[18] = inhibitors of firefly luciferase expression or activity, dose response, H4 neuroglioma cells, luminescence (AID 1990); type: functional, cell-based
[19] = cytotoxicity toward DRD oncogenic fibroblasts, dose response, cell-based, non-viral oncogenic, luminescence (AID 1934); type: functional; details: Homo sapiens
[20] = cytotoxicity in HEK-293T cells, dose response, cytotoxicity control for TCR NF-kB inhibitor project, luminescence, T-cell screen hits (AID 489026); type: functional, cell-based;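 note: cells exposed to compound about 14 hours before the viability readout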
[21] = Luminescence Cell-Based Dose Response HTS to Identify Inhibitors of 5'UTR Stem-Loop Driven Prion Protein mRNA Translation in H4 Neuroglioblastoma Cells. [Related pubchem assays: 1827 (Project Summary), 1813 (Primary HTS)]; type: functional

## CCOC(=O)c1sc(-c2ccc(F)cc2)cc1NC(=O)Nc1ccccc1OC
[1]
  EC50: > 53000 nM (inactive)
Troponin, cardiac muscle
  EC50: > 71400 nM (inactive)

## CCCCC1=CC2=CC(=O)C(C)(OC(=O)CC)C(=O)C2=CN1c1ccccc1 (stereo not drawn)
[2]
  EC50: > 100000 nM (inactive)

## CN(C)CCCNS(=O)(=O)c1ccc(N2CCC(c3ccc(Cl)cc3)=N2)cc1
[3]
  EC50: 338 nM (active)
[4]
  EC50: > 614 nM (active)
[5]
  EC50: > 614 nM (active)
[6]
  EC50: 4670 nM (active)
[7]
  EC50: 1040 nM (active)
[8]
  EC50: 4530 nM (active)
HT-1080
  EC50: 14400 nM (active)

## CCC1CCCCN1C1Sc2ccc(C(=O)OC)cc2NC1=O (stereo not drawn)
[9]
  EC50: > 100000 nM (inactive)

## CC(C)c1cc(C(C)(C)c2ccc(O)c(C(C)C)c2)ccc1O
Large T antigen
  IC50: 26700 nM (active)
[10]
  IC50: 11900 nM (active)

## Cc1[nH]n(-c2ccccc2)c(=O)c1/C=N/Nc1nncc(-c2ccccc2)n1
HEK293
  AC50: 2450 nM (active)
[11]
  IC50: 3500 nM (active)
[12]
  EC50: 2320 nM (active)
BJ [13]
  EC50: 3060 nM (active)
BJ [14]
  EC50: 471 nM (inconclusive)
BJ [15]
  EC50: 2760 nM (active)
[16]
  EC50: 173 nM (active)
Hexokinase HKDC1
  EC50: 6690 nM (active)
Hexokinase-1
  EC50: > 80000 nM (inactive)
INS1
  AC50: 394 nM (active)
[17]
  EC50: 2540 nM (active)
[18]
  EC50: 733 nM (active)
[19]
  EC50: 2390 nM (active)
[20]
  IC50: > 80000 nM (inactive)
[21]
  EC50: 155 nM (active)
